# According to US20260070902A1, “SULFONYL DERIVATIVES AS CCR6 INHIBITORS” (Hoffmann-La Roche Inc., priority 2022, published 2026):
# Columns and labels:
# Assay type in all cases: cell-based
# human CCR6 [1] = target: T1, human CCR6 (Homo sapiens, UniProt P51684); experiment: CHO-K1 CCR6 chemotaxis assay towards CCL20; settings: relative -Log IC50; CHO-K1 cells overexpressing human CCR6; migration towards 100 ng/ml CCL20; 4 h
# T1 sequence (P51684 1-374): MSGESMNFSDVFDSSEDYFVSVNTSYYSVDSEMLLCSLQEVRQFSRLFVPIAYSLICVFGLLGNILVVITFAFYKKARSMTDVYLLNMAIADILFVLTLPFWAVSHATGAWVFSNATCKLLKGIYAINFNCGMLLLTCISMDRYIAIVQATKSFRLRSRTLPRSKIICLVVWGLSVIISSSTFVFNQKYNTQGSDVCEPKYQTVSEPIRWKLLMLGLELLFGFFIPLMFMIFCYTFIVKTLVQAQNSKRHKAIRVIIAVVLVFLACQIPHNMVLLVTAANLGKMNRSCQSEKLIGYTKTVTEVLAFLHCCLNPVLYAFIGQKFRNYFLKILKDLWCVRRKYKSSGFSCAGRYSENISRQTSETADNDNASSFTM
# How it was run: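 Human CCR6-overexpressing CHO-K1 cells (2*10^6 cells/ml) were preincubated 30 min at 37 °C with compound (0.2% DMSO), then allowed to migrate 4 h through 8 µm Transwell pores toward 100 ng/ml CCL20. Migrated cells were counted by CellTiter Glo. −Log IC50 came from four-parameter fits normalised to DMSO without/with CCL20.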
# human CCR6 [2] = target: T1, human CCR6; experiment: Human CCR6-CRE reporter assay; design: The second construct contained the open reading frame of human CCR6 in the pUNO1 backbone; host or cells: 293FT cells; settings: relative -Log IC50; 293FT cells transfected with human CCR6 and CRE-luciferase reporter; 6 μM Forskolin, 6 nM CCL20; 5 h
# How it was run: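 293FT cells transiently co-transfected with human CCR6 and a CRE-luc2P reporter, used 48 h later. Compounds incubated with cells in medium containing 6 μM Forskolin and 6 nM CCL20 (assay-medium levels), 0.1% DMSO final, 5 h at 37° C; luminescence read, relative −Log IC50 from four-parameter fit.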
# Human CD4+ T cells = experiment: CD4+ T cells chemotaxis assay towards CCL20; settings: Homo sapiens, CD4+ T cell, 3 h, relative -Log IC50, human CD4+ T cells stimulated with anti-CD3 and anti-CD28, migration towards 150 ng/ml CCL20
# Excerpt: CD4+ T Cells Chemotaxis Assay Towards CCL20
# Human CD4+ T cells were isolated from buffy coats of healthy donors using a CD4+ T Cell Isolation Kit (Miltenyi Biotec130-096-533). Isolated T cells were stimulated overnight with anti-CD3 and anti-CD28 antibodies (Biolegend 300314/302934) in growth medium (RPMI1640, 10% heat-inactivated FBS, 1× pen/strep (Gibco 15140)). For the chemotaxis assay, Corning Transwell plates were used with a pore size of 5 m (Corning 3388). T cells were counted and diluted to 6*10^6 cells/ml in chemotaxis medium (RPMI1640, 1% BSA, pen/strep). Compounds were four-fold serially diluted in DMSO. Further dilutions were made in chemotaxis medium. Cells were incubated with test compounds for 30 min at 37° C. prior to initiation of the assay (3*10^6 cells/ml). Final DMSO concentration in the assay was 0.2%. Wells of the Transwell plates were filled with 200 μl chemotaxis medium containing 150 ng/ml CCL20 (R&D systems 360-MP). 50 μl of the cell/compound suspension was added to the inserts of the Transwell plates (150,000 cells/insert). The Transwell plates were placed in an incubator at 37° C., 5% CO2 for 3 h. After 3 h, the number of migrated cells was quantified using CellTiter Glo (Promega). Percentage inhibition values were calculated based on the low and high signal obtained with 0.2% DMSO in chemotaxis medium without and with CCL20, respectively. The relative −Log IC50 was determined with GraphPad Prism 9 using a four-parameter dose-response model.
Compound,IC50 (human CCR6 [1]) [nM],IC50 (human CCR6 [2]) [nM],IC50 (Human CD4+ T cells) [nM]
"N=S(=O)(c1ccc(-c2ccc3nccn3c2)cc1)[C@H]1CC[C@H](Nc2ccc(S(F)(F)(F)(F)F)cc2)CC1 (stereo partly drawn) [Example 87, (4-{imidazo[1,2-a]pyridin-6-yl}phenyl)[trans-4-{[4-(pentafluoro-λ^6-sulfanyl)phenyl]Amino}cyclohexyl](imino)-λ^6-sulfanone]",126,200,158
"Cc1nnc2cnc(-c3ccc(S(=N)(=O)[C@H]4CC[C@H](Nc5ccc(S(F)(F)(F)(F)F)cc5)CC4)cc3)cn12 (stereo partly drawn) [Example 170, (4-{3-methyl-[1,2,4]triazolo[4,3-a]pyrazin-6-yl}phenyl) [trans-4-{[4-(pentafluoro-λ^6-sulfanyl)phenyl]amino}cyclohexyl](imino)-λ^6-sulfanone]",2000,501,10000
"O=c1[nH]nc2ccc(-c3ccc(S(=O)(=O)N4CCC(Nc5ccc(S(F)(F)(F)(F)F)cc5)CC4)cc3)cn12 [Example 32, 6-{4-[(4-{[4-(pentafluoro-λ^6-sulfanyl)phenyl]Amino}piperidin-1-yl)sulfonyl]phenyl}-2H,3H-[1,2,4]triazolo[4,3-a]pyridin-3-one]",,100,3.98
"N#Cc1c[nH]c2ccc(-c3ccc(S(=O)(=O)[C@H]4CC[C@H](Nc5ccc(S(F)(F)(F)(F)F)cc5)CC4)cc3)cc12 [Example 7, 5-(4-{[trans-4-{[4-(pentafluoro-λ^6-sulfanyl)phenyl]Amino}cyclohexyl]sulfonyl}phenyl)-1H-indole-3-carbonitrile]",,39.8,0.501
"O=S(=O)(c1ccc(-c2ccc3nnc([C@@H]4CCCN4)n3c2)cc1)[C@H]1CC[C@H](Nc2ccc(S(F)(F)(F)(F)F)cc2)CC1 [Example 161, 4-(pentafluoro-λ^6-sulfanyl)-N-[trans-4-(4-{3-[(2S)-pyrrolidin-2-yl]-[1,2,4]triazolo[4,3-a]pyridin-6-yl}benzenesulfonyl)cyclohexyl]aniline]",,79.4,7.94
"N#Cc1c[nH]c2ccc(-c3ccc(S(=O)(=O)N4CCC(Nc5ccc(S(F)(F)(F)(F)F)cc5)CC4)cc3)cc12 [Example 3, 5-{4-[(4-{[4-(pentafluoro-λ^6-sulfanyl)phenyl]Amino}piperidin-1-yl)sulfonyl]phenyl}-1H-indole-3-carbonitrile]",,50.1,15.8
"N=S(=O)(c1ccc(-c2ccnc(C(N)=O)c2)cc1)[C@H]1CC[C@H](Nc2ccc(S(F)(F)(F)(F)F)cc2)CC1 (stereo partly drawn) [Example 91, 4-(4-{[trans-4-{[4-(pentafluoro-λ^6-sulfanyl)phenyl]Amino}cyclohexyl]sulfonimidoyl}phenyl)pyridine-2-carboxamide]",,126,31.6
"N=S(=O)(c1ccc(-c2ccnc(C(N)=O)c2)cc1)N1CCC(Nc2ccc(S(F)(F)(F)(F)F)cc2)CC1 (stereo not shown) [Example 125, 4-{4-[(4-{[4-(pentafluoro-λ^6-sulfanyl)phenyl]Amino}piperidin-1-yl)sulfonimidoyl]phenyl}pyridine-2-carboxamide]",,200,126
"O=S(=O)(c1ccc(-c2cc(C(F)(F)F)c3nccn3c2)cc1)[C@H]1CC[C@H](Nc2ccc(S(F)(F)(F)(F)F)cc2)CC1 [Example 151, 4-(pentafluoro-λ^6-sulfanyl)-N-[trans-4-{4-[8-(trifluoromethyl)imidazo[1,2-a]pyridin-6-yl]benzenesulfonyl}cyclohexyl]aniline]",,63.1,6.31
"O=C1NC2(CCN(c3ccc(S(=O)(=O)N4CCC(Nc5ccc(S(F)(F)(F)(F)F)cc5)CC4)cc3)CC2)CO1 [Example 135, 8-{4-[(4-{[4-(pentafluoro-λ^6-sulfanyl)phenyl]amino}piperidin-1-yl)sulfonyl]phenyl}-3-oxa-1,8-diazaspiro[4.5]decan-2-one]",,126,25.1
"O=S(=O)(c1ccc(N2CCC3(CC2)COC3)cc1)N1CCC(Nc2ccc(S(F)(F)(F)(F)F)cc2)CC1 [Example 136, 1-(4-{2-oxa-7-azaspiro[3.5]nonan-7-yl}benzenesulfonyl)-N-[4-(pentafluoro-λ^6-sulfanyl)phenyl]piperidin-4-amine]",,126,200
"O=S(=O)(c1ccc(-c2ccc3nccn3c2)cc1)[C@H]1CC[C@H](Nc2ccc(S(F)(F)(F)(F)F)cc2)CC1 [Example 12, 4-(pentafluoro-λ^6-sulfanyl)-N-[trans-4-(4-{imidazo[1,2-a]pyridin-6-yl}benzenesulfonyl)cyclohexyl]aniline]",,79.4,15.8
"N#Cc1cc(-c2ccc(S(=O)(=O)[C@H]3CC[C@H](Nc4ccc(S(F)(F)(F)(F)F)cc4)CC3)cc2)cn2ccnc12 [Example 160, 6-(4-{[trans-4-{[4-(pentafluoro-λ^6-sulfanyl)phenyl]amino}cyclohexyl]sulfonyl}phenyl)imidazo[1,2-a]pyridine-8-carbonitrile]",,50.1,3.98
"O=S(=O)(c1ccc(-c2ccc3nccn3c2)cc1)N1CCC(Nc2cccc(S(F)(F)(F)(F)F)c2)CC1 [Example 82, 1-(4-{imidazo[1,2-a]pyridin-6-yl}benzenesulfonyl)-N-[3-(pentafluoro-λ^6-sulfanyl)phenyl]piperidin-4-amine]",,200,316
"N#Cc1cnc2ccc(-c3ccc(S(=O)(=O)N4CCC(Nc5ccc(S(F)(F)(F)(F)F)cc5)CC4)cc3)cn12 [Example 25, 6-{4-[(4-{[4-(pentafluoro-λ^6-sulfanyl)phenyl]Amino}piperidin-1-yl)sulfonyl]phenyl}imidazo[1,2-a]pyridine-3-carbonitrile]",,39.8,5.01
"O=S(=O)(c1ccc(-c2ccc(O)nc2)cc1)[C@H]1CC[C@H](Nc2ccc(S(F)(F)(F)(F)F)cc2)CC1 [Example 56, 5-(4-{[trans-4-{[4-(pentafluoro-λ^6-sulfanyl)phenyl]Amino}cyclohexyl]sulfonyl}phenyl)pyridin-2-ol]",,63.1,15.8
"O=C1NCc2ccc(-c3ccc(S(=O)(=O)[C@H]4CC[C@H](Nc5ccc(S(F)(F)(F)(F)F)cc5)CC4)cc3)cc21 [Example 9, 6-(4-{[trans-4-{[4-(pentafluoro-λ^6-sulfanyl)phenyl]Amino}cyclohexyl]sulfonyl}phenyl)-2,3-dihydro-1H-isoindol-1-one]",,79.4,10
"N#Cc1n[nH]c2ccc(-c3ccc(S(=O)(=O)[C@H]4CC[C@H](Nc5ccc(S(F)(F)(F)(F)F)cc5)CC4)cc3)cc12 [Example 38, 5-(4-{[trans-4-{[4-(pentafluoro-λ^6-sulfanyl)phenyl]Amino}cyclohexyl]sulfonyl}phenyl)-1H-indazole-3-carbonitrile]",,39.8,0.631
"O=S(=O)(c1ccc(-c2ccc3nnc(C4CNC4)n3c2)cc1)[C@H]1CC[C@H](Nc2ccc(S(F)(F)(F)(F)F)cc2)CC1 [Example 168, 4-(pentafluoro-λ^6-sulfanyl)-N-[trans-4-{4-[3-(azetidin-3-yl)-[1,2,4]triazolo[4,3-a]pyridin-6-yl]benzenesulfonyl}cyclohexyl]aniline]",,251,100
